Measured values published in patent publication EP0244062A2, “Use of aryl ethanol amine derivatives in the treatment of atherosclerosis” (BEECHAM GROUP PLC, priority 1986, dated 1987).

Tests used:
[1] = test system: hypercholesterolaemic mice; assay: Cholesterol reduction in hypercholesterolaemic mice on a high cholesterol-cholic acid diet (Example 4); format: in vivo; conditions: oral; for % Reduction LDL + VLDL cholesterol: heparin precipitation
Experimental: Compound P2 provided the following results with hypercholesterolaemic mice: Mice were made hypercholesterolaemic by being fed on a high cholesterol-cholic acid diet for seven days and were dosed orally on the sixth and seventh days. Low density and very low density lipoprotein (LDL and VLDL) cholesterol were measured together by heparin precipitation.

[2] = test system: Obese subjects; assay: Clinical first study: obese subjects on a low energy liquid formula diet, six weeks (Example 6); format: in vivo, human; conditions: 50 mg pfb, qds for six weeks, fasted
Experimental: Clinical studies using compound P3: First study Obese subjects (at least 20% above ideal weight) were given a low energy liquid formula diet and treated with the compound (50 mg pfb, qds) or placebo for six weeks. Serum triglyceride and cholesterol were measured in the fasted state just prior to the first dose and on the morning after the last dose of compound or placebo. Results are means ± S.E. with the number of subjects in parenthesis.

[3] = test system: Zucker fa/fa male rats; assay: Plasma lipids in Zucker fa/fa rats dosed once daily for 39 days (Example 7); format: in vivo; conditions: 7.8µmol/kg once daily for 39 days, mean of 8 ± S.E.M.
Experimental: Zucker fa/fa male rats of about 550g were dosed once daily with either water or Compound P3 (7.8µmol/kg) for 39 days. Results are means of 8 values ± S.E.M.

[4] = test system: Obese subjects; assay: Clinical second study: crossover in obese subjects on a low energy high fibre diet, 2 x six weeks (Example 6); format: in vivo, human; conditions: 50 mg pfb qds first week, then 100 mg qds, fasted
Experimental: Clinical studies using compound P3: Second study Obese subjects (at least 20X above ideal weight) were given a low energy high fibre diet and treated with the compound or placebo for six weeks after which they were given the alternative treatment for a further six weeks. For the first week of treatment (weeks 1 or 7) the dose level was 50 mg pfb, qds and after this it was 100 mg qds. Serum lipids were measured in the fasted state just prior to the first dose and after each six week period of dosing. Results are means ± S.E. with the number of subjects in parentheses.

[5] = test system: Male rats; assay: Serum lipids in rats given the compound in the diet for 7 days (Example 5); format: in vivo; conditions: 0.1 g of the compound per kg of diet for 7 days, mean of 8 ± S.E.
From the text: Compound P3 provided the following results with rats: Male rats were fed on a normal diet or on a diet that contained O.lg of the compound per kg of diet for 7 days. Results are means of 8 values ± S.E.

[6] = test system: Goldthioglucose-induced obese mice; assay: Serum lipids in goldthioglucose-induced obese mice (Example 2); format: in vivo; conditions: goldthioglucose-induced obese female CFLP mice, 20 mg/kg p.o. once daily for 28 days, mean of 4 ± S.E.
Experimental: Compound Pl provided the following results with Goldthioglucose-induced obese mice: . Female CFLP mice were given goldthioglucose (0.85 mg/g body wt., i.p.) and after 17 weeks the obese mice (mean wt. 57g) were selected and randomized into two groups of 4. The compound (20 mg/kg, p.o.) or water was given once daily for 28 days and the mice were killed the day after the last dose. Results are means of 4 values ± S.E.

[7] = test system: High fat diet-induced obese mice; assay: Serum lipids in high fat diet-induced obese mice (Example 3); format: in vivo; conditions: high fat diet-induced obese female CFLP mice, 20 mg/kg p.o. once daily for 28 days, mean ± S.E. (n=12)
Experimental: Compound Pl provided the following results with High fat diet-induced obese mice: Female CFLP mice were fed on a high protein, high fat diet. After 13 weeks the obese mice (mean wt. 49g) were selected and randomized into groups of 12. The compound (20 mg/kg, p.o.) or water was given once daily for 28 days and the mice were killed the day after the last dose. Results are means ± S.E, with numbers of determinations in parentheses.

[8] = test system: normal mice; assay: Serum lipids in normal mice dosed daily for 28 days (Example 1); format: in vivo; conditions: normal female CFLP mice, mean of 8 ± S.E.; for Serum triglyceride: untreated 40.0±3.2, P < 0.001; for Serum cholesterol: untreated 67.6±2.4
Experimental: Compound P1 provided the following results with normal mice: Normal female CFLP mice were dosed daily at 11.00h for 28 days. One group was also dosed at 17.00h daily. 0n the day after dosing terminated they were killed at 14.00h. Results are means of 8 values ± S.E.

[9] = total dose on days 6 and 7 5 mg/kg
[10] = total dose on days 6 and 7 10 mg/kg
[11] = total dose on days 6 and 7 25 mg/kg
[12] = 2.5 mg/kg body wt. p.o. daily for 28 days
[13] = 2.5 mg/kg body wt. p.o. twice daily for 28 days
[14] = 5 mg/kg body wt. p.o. daily for 28 days
[15] = 10 mg/kg body wt. p.o. daily for 28 days
[16] = 15 mg/kg body wt. p.o. daily for 28 days

Which “% Reduction Total cholesterol” value [1, 9] does the source give for `COC(=O)COc1ccc(C[C@@H](C)NC[C@H](O)c2cccc(Cl)c2)cc1` (racemic) [Compound P2, N-(2-(4-carbomethoxymethoxyphenyl)-1-methylethyl)--2-hydroxy-2-(3-chlorophenyl)ethanamine nydrobromide] here?
Its value is 24%.

And the “% Reduction LDL + VLDL cholesterol” value [1, 9]?
Its value is 29%.

What about the “% Reduction Total cholesterol” value [1, 10] of the same molecule?
The value was 22%.

And the “% Reduction LDL + VLDL cholesterol” value [1, 10]?
The value was 28%.

What about the “% Reduction Total cholesterol” value [1, 11] of the same molecule?
Its value is 34%.

And the “% Reduction LDL + VLDL cholesterol” value [1, 11]?
Its value is 55%.

How did the “Serum triglyceride % Fall” value ([2]; initial 2.05±0.16 mM (4), subjects with initial levels below 1 mM excluded, placebo 21±7) turn out when `COC(=O)c1ccc(C[C@@H](C)NC[C@H](O)c2ccccc2)cc1` (racemic) [Compound P3, N-[2-(4-carbomethoxyphenyl)-1-methylethyl]-2-hydroxy-2-phenylethanamine hemifumarate] was run?
The value was 52±6%.

What about the “Serum cholesterol % Fall” value ([2]; initial 5.81±0.44 mM (5), placebo 19±5) of the same molecule?
The value was 21±7%.

And the “Plasma Cholesterol” value ([3]; water 3.44 ± 0.10, p < 0.05)?
Its value is 3.07 ± 0.14 mM.

What about the “Plasma Triglyceride” value ([3]; water 9.3 ± 0.7, p < 0.02) of the same molecule?
Its value is 5.9 ± 0.9 mM.

What about the “HDL cholesterol % change” value ([4]; 1st 6 weeks, initial 1.50±0.07 mM (15), placebo -10±3) of the same molecule?
The value was 0±4%.

What about the “Serum triglyceride % change” value ([4]; 1st 6 weeks, initial 1.57±0.18 mM (15), placebo -12±5) of the same molecule?
Its value is -25±5%.

What about the “Serum cholesterol % change” value ([4]; 1st 6 weeks, initial 6.10±0.24 mM (15), placebo -13±3) of the same molecule?
Its value is -9±3%.

And the “Serum triglyceride % change” value ([4]; 2nd 6 weeks (after crossover), initial 1.21±0.18 mM (15), placebo +33±10)?
The value was -4±8%.

And the “HDL cholesterol % change” value ([4]; 2nd 6 weeks (after crossover), initial 1.30±0.04 mM (15), placebo -5±4)?
Its value is “+14±3%”.

What about the “Serum cholesterol % change” value ([4]; 2nd 6 weeks (after crossover), initial 5.30±0.29 mM (15), placebo +4±3) of the same molecule?
The value was “+5±3%”.

What about the Serum cholesterol ([5]; control 52±2) of the same molecule?
Its Serum cholesterol is 54±3 mg/100ml.

What about the Serum triglyceride ([5]; control 112±10, P < 0.05) of the same molecule?
The Serum triglyceride was 70±4 mg/100ml.

How did the Serum triglyceride ([6]; control 35±4, P < 0.05) turn out when `COC(=O)c1ccc(CC(C)NCC(O)c2ccc(O)c(CO)c2)cc1` (centres unmarked) [Compound P1, N-(2-(4-carbomethoxghenyl)-1-metnylethyl) -2-hydroxy-2-(4-hydroxy-3-hydroxymethylphenyl) ethanamine] was run?
The Serum triglyceride was 22±3 mg/100 ml.

And the Serum cholesterol ([6]; control 82±4)?
Its Serum cholesterol is 81±6 mg/100 ml.

What about the Serum triglyceride ([7]; control 73±8, P < 0.01) of the same molecule?
The Serum triglyceride was 34±2**(12) mg/100ml.

And the Serum cholesterol ([7]; control 118±3, P < 0.05)?
The Serum cholesterol was 103±5*(12) mg/100ml.

What about the Serum triglyceride [8, 12] of the same molecule?
Its Serum triglyceride is 21.5±1.1 mg/100 ml.

What about the Serum cholesterol [8, 12] of the same molecule?
The Serum cholesterol was 67.0±3.2 mg/100 ml.

And the Serum triglyceride [8, 13]?
The Serum triglyceride was 16.4±0.8 mg/100 ml.

And the Serum cholesterol [8, 13]?
The Serum cholesterol was 74.4±1.7 mg/100 ml.

What about the Serum triglyceride [8, 14] of the same molecule?
The Serum triglyceride was 16.3±1.1 mg/100 ml.

What about the Serum cholesterol [8, 14] of the same molecule?
The Serum cholesterol was 69.1±2.4 mg/100 ml.

And the Serum triglyceride [8, 15]?
The Serum triglyceride was 14.5±0.7 mg/100 ml.

And the Serum cholesterol [8, 15]?
Its Serum cholesterol is 68.4±3.3 mg/100 ml.

And the Serum triglyceride [8, 16]?
Its Serum triglyceride is 14.3±0.8 mg/100 ml.

And the Serum cholesterol [8, 16]?
Its Serum cholesterol is 71.0±2.4 mg/100 ml.
